The values that follow come from PubChem BioAssay (NCI).

Some test systems named below: HT29 colon; MOLT-4 leukemia; CCRF-CEM leukemia; NCI-H460 lung; EKVX NSCLC; NCI-H522 lung; M14 melanoma; OVCAR-3 ovarian.
Common to all, as to test: growth of human tumour cells (NCI), 48 h

“And” between values parts separate entries of the source, which are not always exact repeats. Identical values can stand only once.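 How tested: cells in 96-well plates exposed to compound for 48 hours at five concentrations. GI50 is the concentration that inhibits growth by half. TGI marks complete inhibition of growth.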

For the molecule `C=CC(=O)Nc1cc(C)ccc1Nc1nc(Nc2cc(OC)ncc2C)ncc1C(F)(F)F`, the GI50 is 0.122 µM in the assay on HT29 colon; 3.55 µM with MOLT-4 leukemia; 3.73 µM in the assay on CCRF-CEM leukemia; 2.13 µM in the assay on NCI-H460 lung; 0.438 µM in the assay on EKVX NSCLC; 1.14 µM in the assay with NCI-H522 lung. Besides, the GI50 is 0.0668 µM in the assay on M14 melanoma and 1.4 µM in the assay with OVCAR-3 ovarian. The TGI with MOLT-4 leukemia is > 100 µM; in the assay on CCRF-CEM leukemia, > 100 µM; in the assay with NCI-H460 lung, 11.4 µM; with EKVX NSCLC, 3.1 µM; with NCI-H522 lung, > 31.6 µM; in the assay on M14 melanoma it was 0.686 µM. Besides, in the assay with OVCAR-3 ovarian, the TGI was > 100 µM.

For `COc1cccc(NC(=O)c2sc3nc(C)c(C(O)c4ccccc4)cc3c2N)c1` (stereo not drawn), the GI50 in the assay on HT29 colon is 0.3 µM; with MOLT-4 leukemia it was 0.378 µM; with CCRF-CEM leukemia, 0.219 µM; in the assay on NCI-H460 lung it was 0.324 µM; in the assay on EKVX NSCLC, 0.76 µM; in the assay on NCI-H522 lung it was 0.308 µM. In addition, the GI50 with M14 melanoma was 0.199 µM; in the assay with OVCAR-3 ovarian, 0.255 µM. In addition, the TGI with HT29 colon is 14 µM; in the assay with MOLT-4 leukemia, 19.5 µM; with CCRF-CEM leukemia, > 79.7 µM; in the assay with NCI-H460 lung, 3.21 µM; with EKVX NSCLC, 34.8 µM; in the assay with NCI-H522 lung, 14.1 µM. Also, the TGI turned out to be 17.4 µM with M14 melanoma and 2.93 µM with OVCAR-3 ovarian.

Regarding `COc1c2ccoc2c(OC)c2oc(=O)ccc12`, the TGI with HT29 colon, in the assay on MOLT-4 leukemia, in the assay with CCRF-CEM leukemia, with NCI-H460 lung, with EKVX NSCLC and in the assay on NCI-H522 lung was > 100 µM in each case. Moreover, the TGI in the assay with M14 melanoma and in the assay on OVCAR-3 ovarian was > 100 µM in each case.

On to `C[C@@]12CCC[C@@](C)(C(=O)O)C1CC[C@]13C[C@@](O)(CO)[C@](O)(CCC12)C3` (stereo partly drawn), for which the GI50 in the assay on HT29 colon, with MOLT-4 leukemia, in the assay on CCRF-CEM leukemia, in the assay on NCI-H460 lung, in the assay with EKVX NSCLC and in the assay with NCI-H522 lung was > 100 µM throughout. In addition, the GI50 in the assay on M14 melanoma and in the assay with OVCAR-3 ovarian was > 100 µM throughout. Also, the TGI in the assay with HT29 colon, with MOLT-4 leukemia, in the assay on CCRF-CEM leukemia, in the assay with NCI-H460 lung, in the assay with EKVX NSCLC and in the assay on NCI-H522 lung was > 100 µM throughout. In addition, the TGI in the assay on M14 melanoma and with OVCAR-3 ovarian was > 100 µM each time.

Take `CC(C)=CCC/C(C)=C/CC/C(C)=C/CSc1ccccc1C(=O)O`: the GI50 in the assay with HT29 colon is 33.5 µM; in the assay with CCRF-CEM leukemia, 32.3 µM; in the assay on NCI-H460 lung, 20.9 µM; with EKVX NSCLC, 29.8 µM; in the assay on NCI-H522 lung, 21.6 µM; with M14 melanoma it was 25.6 µM. Also, the TGI was > 78.5 µM and 38.1 µM in the assay on HT29 colon; 48.9 µM and 57.7 µM in the assay on MOLT-4 leukemia; > 100 µM and 74.2 µM in the assay with CCRF-CEM leukemia; 42 µM and 33.1 µM in the assay with NCI-H460 lung; > 84.9 µM and 45.1 µM with EKVX NSCLC; 52 µM in the assay with NCI-H522 lung. Moreover, the TGI is > 95 µM and 40.6 µM with M14 melanoma; 33.8 µM and 30.9 µM in the assay on OVCAR-3 ovarian.

With `Cn1cnc([N+](=O)[O-])c1Sc1nc(N)nc2c1ncn2C1CC(O)C(CO)O1` (stereo not drawn), the TGI is > 100 µM in the assay on HT29 colon; 16.4 µM with MOLT-4 leukemia; > 100 µM in the assay with CCRF-CEM leukemia; > 40 µM in the assay with NCI-H460 lung; > 100 µM in the assay on EKVX NSCLC; 14.4 µM in the assay with NCI-H522 lung. The TGI in the assay with M14 melanoma is > 58.6 µM; with OVCAR-3 ovarian, > 36.4 µM.

Regarding `C=C1CCC2C3(C)COC(c4ccccc4)OC3CCC2(C)C1/C=C/C1=CCOC1=O` (stereo not drawn), the GI50 in the assay on HT29 colon is 3.23 µM; in the assay with MOLT-4 leukemia, 2.55 µM; in the assay with CCRF-CEM leukemia, 1.89 µM; in the assay on NCI-H460 lung, 9.29 µM; in the assay on EKVX NSCLC it was 13.7 µM; in the assay with NCI-H522 lung, 3.65 µM. Besides, the values for the GI50 in the assay with M14 melanoma and in the assay with OVCAR-3 ovarian were 6.4 µM and 2.79 µM, respectively. Besides, the TGI in the assay with HT29 colon is 10.7 µM; with MOLT-4 leukemia, 15.1 µM; in the assay with CCRF-CEM leukemia, 5.65 µM; in the assay with NCI-H460 lung, 35.9 µM; with EKVX NSCLC, > 100 µM; in the assay with NCI-H522 lung it was 14.9 µM. Besides, the TGI in the assay with M14 melanoma worked out at 36.7 µM; in the assay on OVCAR-3 ovarian, 8.84 µM.

Take `Clc1ccc(-c2c3c(nn2-c2ccccn2)CCc2ccccc2-3)cc1Cl`: the GI50 is 46.3 µM in the assay on HT29 colon; > 100 µM in the assay on MOLT-4 leukemia; > 100 µM in the assay with CCRF-CEM leukemia; > 100 µM in the assay on NCI-H460 lung; > 100 µM with EKVX NSCLC; > 100 µM with NCI-H522 lung. Besides, the results for the GI50 in the assay with M14 melanoma and in the assay with OVCAR-3 ovarian were 34 µM and > 100 µM, respectively. Further, the TGI in the assay on HT29 colon, with MOLT-4 leukemia, with CCRF-CEM leukemia, in the assay with NCI-H460 lung, in the assay with EKVX NSCLC and in the assay with NCI-H522 lung was > 100 µM throughout. Besides, the TGI in the assay with M14 melanoma and in the assay with OVCAR-3 ovarian was > 100 µM each time.

Regarding `COc1cc(-c2cc(O)c(-c3ccc4ccccc4n3)c(=O)[nH]2)cc(OC)c1OC`, the TGI in the assay on HT29 colon is > 73.1 µM; in the assay on MOLT-4 leukemia it was 50.9 µM; in the assay on CCRF-CEM leukemia, > 30.6 µM; with NCI-H460 lung it was > 80.6 µM; in the assay on EKVX NSCLC, > 100 µM; with NCI-H522 lung, 40.8 µM. Also, the figures for the TGI with M14 melanoma and in the assay on OVCAR-3 ovarian were > 95.2 µM and > 48.9 µM, respectively.

In the case of `Cc1cc(N2CCOCC2)nc(N[C@@H]2CCC[C@H](Nc3ccnc4cc(Cl)ccc34)C2)n1`, the GI50 is 2.13 µM in the assay on HT29 colon; 2.28 µM in the assay with MOLT-4 leukemia; 3.31 µM with CCRF-CEM leukemia; 2.66 µM in the assay on NCI-H460 lung; 2.86 µM in the assay on EKVX NSCLC; 2.97 µM in the assay on NCI-H522 lung. Also, the GI50 in the assay with M14 melanoma is 2 µM; in the assay with OVCAR-3 ovarian it was 2.83 µM. Moreover, the TGI in the assay on HT29 colon was determined as 5.24 µM; with MOLT-4 leukemia it was 7.19 µM; with CCRF-CEM leukemia, 9.25 µM; in the assay on NCI-H460 lung it was 8.64 µM; in the assay with EKVX NSCLC, 13.2 µM; in the assay on NCI-H522 lung it was 6.23 µM. Moreover, the values for the TGI in the assay with M14 melanoma and with OVCAR-3 ovarian were 3.7 µM and 8.62 µM, respectively.
